The record followed here is the SangsterLogP compilation.

As a reminder, the logP is the decadic logarithm of the partition coefficient of the neutral form, usually between octanol and water. High values mean higher lipophilicity, low ones lower lipophilicity. The compound `CCC(C)(C)CC` showed a logP of 5.19. The compound `CC(C)C(C)(C)O` yielded a logP of 1.48. As for `CCCC(=O)OCC`, the logP stood at 1.71.

For `ClCC(Cl)(Cl)Cl`, the logP came to 2.66. To `OC1CCCCCCC1` belongs 2.39; to `CCCCCI`, 3.62; to `C=CCC=CC`, 3.16. In turn, `CCCCCCCCCCCCCC` displayed a log partition coefficient (logP) of 8. To `CC1CCCO1` (centres undefined) belongs 1.25; to `CCCCOC(=O)CCCC`, 3.36. To `OC1CCCCCC1` belongs 1.83; to `CC(=O)OC(C)C`, 1.02.

In turn, `CCOC(=O)C(C)C` registered a log partition coefficient (logP) of 1.55. `CCCCCCCCC` returned a log partition coefficient (logP) of 5.65. In the case of `CCCI` it was 2.54.

With `CCCCCCCl`, the lipophilicity (logP) was found to be 3.66. In the case of `CCCCCCl` it was 3.11; in that of `C#CCCCCCC`, 3.92; in that of `CC(C)Br`, 2.1. To `C#CCC` belongs 1.46; to `CCCOC(=O)CC`, 1.71. In the case of `CCCCCCCCCCc1ccccc1` it was 7.4.

Consider `CCCCF`, for which the logP stood at 2.

`ClCCCCCl`: the lipophilicity (logP) worked out at 2.24. In the case of `CCCCC(=O)OCC` it was 2.3.

The compound `CCCOC(=O)CCC` had a logP of 2.15. `CCCCCCCCCl` displayed a logP of 4.73.

In turn, `CCC(=O)OC(C)C` registered a logP of 1.57. The compound `CCCCC(=O)CCCC` returned a logP of 2.88. In turn, `CCCC(=O)CCC` had a log partition coefficient (logP) of 2.04. Consider `CCCCCCI`, for which the logP came to 4.16. For `C#CCCCCC`, the logP was 3.32. Take `CCCC(C)(C)O`: the logP amounted to 1.53. Compound `CCCCCCCCCCBr` showed a logP of 6. Take `CCN1CCCCC1`: the lipophilicity (logP) amounted to 1.88.

Compound `C#CCCCCCCC` yielded a logP of 4.51. In the case of `CCCCI` it was 3.08; in that of `C=CCCC`, 2.8; in that of `CCC(C)(C)c1ccc(O)cc1`, 3.83. For `CCCCCC(=O)OC`, the logP turned out to be 2.42. In the case of `CC(C)CCl` it was 2.39. `CCOC=O` displayed a logP of 0.27. The compound `CCCCCCCCC(=O)OC` showed a logP of 3.87. In the case of `CC(C)CBr` it was 2.53.
